Source: patent publication US11927589B2, “Carrier peptide fragment for nucleolar localization and use thereof” (TOAGOSEI CO., LTD., priority 2021, dated 2024)
FAM = FAM: 5(6)-carboxyfluorescein, a fluorescent dye

How the values were obtained:
[1] = system: HeLa cells; assay: Evaluation of cell membrane permeability by flow cytometry (Test 1); settings: 10 μM, 20 hours incubation
Experimental: HeLa cells were cultured in a DMEM (Dulbecco's modified Eagle's medium (Cat No. 043-30085 commercially available from FUJIFILM Wako Pure Chemical Corporation)) containing 10% FBS (fetal bovine serum), which is a general culture medium.
HeLa cells adhered to a culture plate were washed with PBS and a 0.25% trypsin/EDTA solution was then added, and the cells were incubated at 37° C. for 3 minutes. After the incubation, a 10% FBS-containing DMEM was added, trypsin was inactivated, and centrifugation was then performed at 150×g for 5 minutes to precipitate cells. […]
For the obtained cells (cell pellets), the cell permeability of Sample 1 was analyzed using a flow cytometer. […]
Using the flow cytometer, gating was performed based on forward scatter (FSC) and side scatter (SSC), a gate was set for a cell population to be analyzed, and the fluorescent intensity was measured for the cell population within such a gate. […] For measurement of the fluorescent intensity, a fluorescence detector FL2 (optimal detection wavelength of about 543 nm) of the flow cytometer that can detect a fluorescence wavelength of FAM was used. The measurement results were analyzed using commercially available analysis software “FlowJo (registered trademark)” (commercially available from TreeStar) to obtain a mean fluorescent intensity (MFI) of the cell population to be measured.

[2] = Cytotoxicity examination by the inventors; format: cell-based
Experimental: In all of the amino acid sequences shown in SEQ ID NOs 1 to 4, 11 amino acid residues among 13 amino acid residues are composed of basic amino acids (arginine and lysine). […] On the other hand, in the carrier peptide fragment composed of any of the amino acid sequences shown in SEQ ID NOs 1 to 4, the inventors have confirmed through examination that, even if the concentration of the carrier peptide fragment is 100 μM, there is almost no cytotoxicity, and the cytotoxicity is much lower than that of R8. […] Although the details of the mechanism are not clear, in the carrier peptide fragment disclosed here, it is estimated that inclusion of a threonine residue and a leucine residue which are neutral amino acids at the 4th and 5th positions in addition to basic amino acids contributes to reduction of cytotoxicity.

[3] = system: HeLa cells; assay: Intracellular localization by confocal laser scanning microscopy (Test 2); format: cell-based, human; settings: 5 μM, 20 hours, methanol-fixed, DAPI/FAM merged images
Experimental: In this test, localization of Samples 1 to 5 in HeLa cells was analyzed. HeLa cells were seeded on collagen-coated 8-well slides at about 2×10^4 cells/well, and cultured overnight in the presence of 5% CO2 at 37° C. A 10% FBS-containing DMEM was used as the cell culture solution.
Then, the supernatant (culture solution) was removed, ice-cooled PBS was added, and washing on ice was performed three times. Then, ice-cooled methanol was added, the sample was left at −20° C. for 10 minutes, and the cells were immobilized. Then, methanol was removed, and washing was then performed three times with ice-cooled PBS. Then, a DAPI-containing encapsulant (commercially available from ThemoFisher Scientific) and a cover glass were used for encapsulation and fluorescence observation was performed under a confocal laser scanning microscope. […] Here, all FIGS. 2A to 2E show images in which fluorescent images of DAPI and FAM were merged.

## 5(6)-carboxyfluorescein [Example 6]
[1]; flow cytometer FL2
  relative value of MFI (mean fluorescent intensity), MFI value of Example 6 set to 1: 1

## N=C(N)NCCC[C@H](NC(=O)[C@H](CCCNC(=N)N)NC(=O)[C@H](CCCNC(=N)N)NC(=O)[C@H](CCCNC(=N)N)NC(=O)[C@H](CCCNC(=N)N)NC(=O)[C@H](CCCNC(=N)N)NC(=O)[C@H](CCCNC(=N)N)NC(=O)[C@@H](N)CCCNC(=N)N)C(=O)O [Example R8, octaarginine]
[2]
  cytotoxicity: relatively high

## Ac-KKRTLRKKKRKKR-FAM (Ac-KKRTLRKKKRKKR-{FAM}) [Example 1]
[1]
  MFI value compared with the MFI value of Example 5: more than three times as high

## Ac-KKRTLRKNDRKKR-FAM (Ac-KKRTLRKNDRKKR-{FAM}) [Example 5]
[3]
  fluorescence of FAM observed in the nucleolus: slightly observed in the nucleolus
